Reference: patent US10308639B2, “Phosphatidylinositol 3-kinase inhibitors” (Gilead Sciences, Inc., priority 2014, dated 2019)

Assays:
Assay type in all cases: biochemical
PI3Kβ = molecular target: T1, PI3Kβ (Homo sapiens, UniProt P42338); experiment: TR-FRET enzymatic activity assay, PI3Kβ; details: Table 2a; same assay
T1 construct: made in house

PI3Kδ = molecular target: T2, PI3Kδ (Homo sapiens, UniProt O00329); experiment: TR-FRET enzymatic activity assay, PI3Kδ; details: Table 2a; same assay
T2 construct: made in house

PI3Kγ = molecular target: T3, PI3Kγ (Homo sapiens, UniProt P48736); experiment: TR-FRET enzymatic activity assay, PI3Kγ; details: Table 2a; same assay; read-out: PI3Kγ IC50
T3 construct: made in house
Procedure, shortened: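 Read-out is TR-FRET. The assay scores enzymatic activity of the individual PI3K isoforms in the presence of compound.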

T1 sequence (P42338 whole entry): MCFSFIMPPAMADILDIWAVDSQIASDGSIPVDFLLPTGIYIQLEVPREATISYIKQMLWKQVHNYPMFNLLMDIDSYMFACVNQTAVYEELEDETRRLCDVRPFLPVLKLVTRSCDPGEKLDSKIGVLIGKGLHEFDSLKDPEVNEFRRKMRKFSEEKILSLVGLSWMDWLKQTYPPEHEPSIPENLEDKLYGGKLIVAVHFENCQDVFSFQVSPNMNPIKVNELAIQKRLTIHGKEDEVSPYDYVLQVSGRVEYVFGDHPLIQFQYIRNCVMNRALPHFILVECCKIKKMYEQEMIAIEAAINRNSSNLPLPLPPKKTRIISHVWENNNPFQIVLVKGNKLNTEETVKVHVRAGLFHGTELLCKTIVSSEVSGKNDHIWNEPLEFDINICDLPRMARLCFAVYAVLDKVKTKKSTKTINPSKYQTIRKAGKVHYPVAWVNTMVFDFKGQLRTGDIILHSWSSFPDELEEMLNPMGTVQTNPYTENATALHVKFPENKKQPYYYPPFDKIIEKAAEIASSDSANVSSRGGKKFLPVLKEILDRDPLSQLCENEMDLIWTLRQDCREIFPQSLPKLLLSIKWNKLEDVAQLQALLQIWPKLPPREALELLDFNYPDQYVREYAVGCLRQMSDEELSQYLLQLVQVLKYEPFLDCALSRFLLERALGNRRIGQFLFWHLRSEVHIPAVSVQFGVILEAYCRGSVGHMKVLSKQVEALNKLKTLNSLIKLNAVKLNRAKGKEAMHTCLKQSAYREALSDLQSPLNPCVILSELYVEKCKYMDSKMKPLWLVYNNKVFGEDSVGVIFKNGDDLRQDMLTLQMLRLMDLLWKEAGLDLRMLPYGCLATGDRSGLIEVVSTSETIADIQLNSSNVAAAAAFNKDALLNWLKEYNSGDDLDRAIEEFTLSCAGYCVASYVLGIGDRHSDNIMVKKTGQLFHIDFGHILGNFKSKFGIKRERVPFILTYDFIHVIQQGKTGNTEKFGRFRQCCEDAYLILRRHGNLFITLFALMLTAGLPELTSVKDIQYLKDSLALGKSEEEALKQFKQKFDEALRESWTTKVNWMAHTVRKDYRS
T1 sequence (P27986 whole entry partner): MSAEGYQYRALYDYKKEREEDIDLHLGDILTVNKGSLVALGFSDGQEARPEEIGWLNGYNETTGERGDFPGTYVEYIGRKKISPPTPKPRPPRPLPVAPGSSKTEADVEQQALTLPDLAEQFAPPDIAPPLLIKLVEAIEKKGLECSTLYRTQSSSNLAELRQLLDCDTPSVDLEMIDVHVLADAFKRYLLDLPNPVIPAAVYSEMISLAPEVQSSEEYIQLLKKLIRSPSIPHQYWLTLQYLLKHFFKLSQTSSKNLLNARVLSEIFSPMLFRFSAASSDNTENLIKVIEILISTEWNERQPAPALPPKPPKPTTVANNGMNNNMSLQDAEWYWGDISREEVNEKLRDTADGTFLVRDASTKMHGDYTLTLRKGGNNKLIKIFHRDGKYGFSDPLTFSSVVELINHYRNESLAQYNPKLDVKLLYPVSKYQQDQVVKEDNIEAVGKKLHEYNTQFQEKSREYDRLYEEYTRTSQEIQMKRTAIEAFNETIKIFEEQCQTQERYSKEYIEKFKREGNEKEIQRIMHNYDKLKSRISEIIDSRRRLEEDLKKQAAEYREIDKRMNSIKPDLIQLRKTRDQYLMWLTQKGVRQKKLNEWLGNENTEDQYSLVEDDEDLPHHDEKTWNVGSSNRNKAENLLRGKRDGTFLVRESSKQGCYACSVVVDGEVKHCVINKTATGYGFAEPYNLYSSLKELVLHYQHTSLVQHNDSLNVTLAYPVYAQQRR
T3 sequence (P48736 whole entry): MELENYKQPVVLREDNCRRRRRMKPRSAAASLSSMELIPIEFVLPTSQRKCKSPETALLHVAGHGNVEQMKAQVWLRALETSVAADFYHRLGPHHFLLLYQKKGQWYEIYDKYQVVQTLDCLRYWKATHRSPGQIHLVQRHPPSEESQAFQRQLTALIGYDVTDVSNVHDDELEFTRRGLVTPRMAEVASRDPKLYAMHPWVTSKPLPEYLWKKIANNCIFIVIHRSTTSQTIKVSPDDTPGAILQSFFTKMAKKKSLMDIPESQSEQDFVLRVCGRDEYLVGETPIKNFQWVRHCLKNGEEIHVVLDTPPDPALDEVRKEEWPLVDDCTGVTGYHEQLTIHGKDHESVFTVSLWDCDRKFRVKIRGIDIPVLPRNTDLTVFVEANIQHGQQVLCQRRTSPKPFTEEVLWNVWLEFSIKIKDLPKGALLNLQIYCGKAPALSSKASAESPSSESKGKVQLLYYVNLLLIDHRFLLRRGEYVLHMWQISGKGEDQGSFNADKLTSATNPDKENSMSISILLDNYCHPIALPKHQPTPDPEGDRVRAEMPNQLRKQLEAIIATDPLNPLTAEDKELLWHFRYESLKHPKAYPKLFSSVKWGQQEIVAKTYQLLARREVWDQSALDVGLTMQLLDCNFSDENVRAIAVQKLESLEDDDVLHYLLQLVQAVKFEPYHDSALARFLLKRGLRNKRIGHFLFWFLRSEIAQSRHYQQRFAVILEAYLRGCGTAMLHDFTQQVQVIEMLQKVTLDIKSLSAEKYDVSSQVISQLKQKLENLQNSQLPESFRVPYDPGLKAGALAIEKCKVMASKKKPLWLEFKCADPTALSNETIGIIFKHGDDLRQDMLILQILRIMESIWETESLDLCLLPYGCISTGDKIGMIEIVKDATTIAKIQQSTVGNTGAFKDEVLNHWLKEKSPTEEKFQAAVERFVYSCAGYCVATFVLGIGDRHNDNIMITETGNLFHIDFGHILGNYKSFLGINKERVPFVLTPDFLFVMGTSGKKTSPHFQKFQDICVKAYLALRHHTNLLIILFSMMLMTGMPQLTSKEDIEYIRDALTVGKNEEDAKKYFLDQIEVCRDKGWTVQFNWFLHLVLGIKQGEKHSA
T2 sequence (O00329 whole entry): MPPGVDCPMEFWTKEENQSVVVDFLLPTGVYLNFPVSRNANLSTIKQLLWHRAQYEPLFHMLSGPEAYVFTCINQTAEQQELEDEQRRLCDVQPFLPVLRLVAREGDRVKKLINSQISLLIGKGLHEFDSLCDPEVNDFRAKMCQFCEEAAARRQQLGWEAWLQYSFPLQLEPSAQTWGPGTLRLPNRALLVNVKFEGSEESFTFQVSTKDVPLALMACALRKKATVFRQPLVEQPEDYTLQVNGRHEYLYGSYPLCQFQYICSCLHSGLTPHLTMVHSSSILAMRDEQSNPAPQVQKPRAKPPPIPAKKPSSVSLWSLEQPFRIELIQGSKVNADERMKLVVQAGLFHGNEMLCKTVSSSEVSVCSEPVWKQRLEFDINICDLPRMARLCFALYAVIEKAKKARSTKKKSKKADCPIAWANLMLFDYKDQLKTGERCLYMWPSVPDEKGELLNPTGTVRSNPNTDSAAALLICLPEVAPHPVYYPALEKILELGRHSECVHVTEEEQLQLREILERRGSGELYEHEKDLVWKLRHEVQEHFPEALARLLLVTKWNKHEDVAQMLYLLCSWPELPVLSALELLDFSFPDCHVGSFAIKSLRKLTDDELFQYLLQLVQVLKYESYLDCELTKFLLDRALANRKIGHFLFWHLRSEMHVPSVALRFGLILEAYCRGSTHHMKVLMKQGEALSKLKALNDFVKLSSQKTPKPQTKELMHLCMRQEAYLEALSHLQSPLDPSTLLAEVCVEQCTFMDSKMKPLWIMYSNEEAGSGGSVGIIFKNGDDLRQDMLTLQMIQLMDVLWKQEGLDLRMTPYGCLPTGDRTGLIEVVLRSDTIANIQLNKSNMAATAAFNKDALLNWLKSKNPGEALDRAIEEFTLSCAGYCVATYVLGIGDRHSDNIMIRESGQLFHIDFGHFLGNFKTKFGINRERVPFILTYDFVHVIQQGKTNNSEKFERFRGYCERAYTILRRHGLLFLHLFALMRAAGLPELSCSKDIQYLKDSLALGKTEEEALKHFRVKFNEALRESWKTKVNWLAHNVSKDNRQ
T2 sequence (P27986 whole entry partner): as the sequence (P27986 whole entry partner) above

Row | Structure (SMILES) | IC50 (PI3Kβ) [nM] | IC50 (PI3Kδ) [nM] | IC50 (PI3Kγ) [nM]
1 | C[C@H](Nc1ncnc2scc(C#N)c12)c1nc2cccc(Cl)c2c(=O)n1-c1cc[nH]n1 [Compound 202, (S)-4-((1-(5-chloro-4-oxo-3-(1H-pyrazol-3-yl)-3,4-dihydroquinazolin-2-yl)ethyl)amino)thieno[2,3-d]pyrimidine-5-carbonitrile] | 62 | 0.5 | 14
2 | Cc1c[nH]nc1-n1c([C@@H](Nc2nc(N)nc(C)c2C#N)C2CC2)nc2c(C#N)cccc2c1=O [Compound 203, (S)-2-(((2-amino-5-cyano-6-methylpyrimidin-4-yl)amino)(cyclopropyl)methyl)-3-(4-methyl-1H-pyrazol-3-yl)-4-oxo-3,4-dihydroquinazoline-8-carbonitrile] | 37 | 5 | > 10000
3 | Cc1c[nH]nc1-n1c([C@@H](Nc2nc(N)nc(N)c2Cl)C2CC2)nc2c(C#N)cccc2c1=O [Compound 204, (S)-2-(cyclopropyl((2,6-diamino-5-chloropyrimidin-4-yl)amino)methyl)-3-(4-methyl-1H-pyrazol-3-yl)-4-oxo-3,4-dihydroquinazoline-8-carbonitrile] | 3200 | 310 | > 10000
4 | C[C@H](Nc1nc(N)nc(N)c1Cl)c1nc2cccc(C(F)(F)F)c2c(=O)n1-c1cc[nH]n1 [Compound 208, (S)-2-(1-((2,6-diamino-5-chloropyrimidin-4-yl)amino)ethyl)-3-(1H-pyrazol-3-yl)-5-(trifluoromethyl)quinazolin-4(3H)-one] | 8 | 6 | 4400
5 | C[C@H](Nc1nc(N)nc(N)c1Cl)c1nc2cccc(C(F)(F)F)c2c(=O)n1-c1cn[nH]c1 [Compound 209, (S)-2-(1-((2,6-diamino-5-chloropyrimidin-4-yl)amino)ethyl)-3-(1H-pyrazol-4-yl)-5-(trifluoromethyl)quinazolin-4(3H)-one] | 83 | 16 | 1800
6 | Nc1nc(N)c(Cl)c(N[C@H](c2nc3cccc(C(F)(F)F)c3c(=O)n2-c2cc[nH]n2)C2CC2)n1 [Compound 210, (S)-2-(cyclopropyl((2,6-diamino-5-chloropyrimidin-4-yl)amino)methyl)-3-(1H-pyrazol-3-yl)-5-(trifluoromethyl)quinazolin-4(3H)-one] | 37 | 19 | 6600

Stronger by IC50 (PI3Kβ), values ahead:

Row | IC50 (PI3Kβ) [nM] | IC50 (PI3Kδ) [nM] | IC50 (PI3Kγ) [nM] | Structure (SMILES)
7 | 3 | 3 | 1000 | C[C@H](Nc1nc(N)nc(N)c1C(F)(F)F)c1nc2cccc(Cl)c2c(=O)n1-c1cc[nH]n1 [Compound 201, (S)-5-chloro-2-(1-((2,6-diamino-5-(trifluoromethyl)pyrimidin-4-yl)amino)ethyl)-3-(1H-pyrazol-3-yl)quinazolin-4(3H)-one]
8 | 2 | 0.7 | 320 | C[C@H](Nc1nc(N)nc(N)c1C#N)c1nc2cccc(C(F)(F)F)c2c(=O)n1-c1cc[nH]n1 [Compound 205, (S)-2,4-diamino-6-((1-(4-oxo-3-(1H-pyrazol-3-yl)-5-(trifluoromethyl)-3,4-dihydroquinazolin-2-yl)ethyl)amino)pyrimidine-5-carbonitrile]
9 | 3 | 2 | 120 | C[C@H](Nc1nc(N)nc(N)c1C#N)c1nc2cccc(C(F)(F)F)c2c(=O)n1-c1cn[nH]c1 [Compound 206, (S)-2,4-diamino-6-((1-(4-oxo-3-(1H-pyrazol-4-yl)-5-(trifluoromethyl)-3,4-dihydroquinazolin-2-yl)ethyl)amino)pyrimidine-5-carbonitrile]
10 | 4 | 2 | 640 | N#Cc1c(N)nc(N)nc1N[C@H](c1nc2cccc(C(F)(F)F)c2c(=O)n1-c1cc[nH]n1)C1CC1 [Compound 207, (S)-2,4-diamino-6-((cyclopropyl(4-oxo-3-(1H-pyrazol-3-yl)-5-(trifluoromethyl)-3,4-dihydroquinazolin-2-yl)methyl)amino)pyrimidine-5-carbonitrile]
